Laboratory results reported in the supplement of paper PMC10307832.

Key:
Assay in all cases: relative viability (nuclei count vs DMSO), 5 days (fraction); higher = more cells survive
[1] = compound: CCC1=CN=CN=C1N2CCN(CC2)CC3=NC4=C(N3)C=C(C=C4)C(F)(F)F + C[C@]1(O)C[C@@H](c2nc(-c3ccc4ccc(-c5ccccc5)nc4c3)c3c(N)nccn32)C1 [Linsitinib] (partner 1 µM)
Outline: (§1)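 Each reported value is a median over duplicate plates. It expresses relative viability: treated-well nuclei count divided by vehicle-well nuclei count. Lung cancer cell lines in 1536-well plates were dosed by pin tool a day after seeding, alone with one drug or with a fixed anchor-drug dose plus five library-drug doses (not always all listed) in √10 steps, and nuclei were counted after 5 days.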

[2] = compound: CCn1c(-c2nonc2N)nc2cnc(Oc3cccc(NC(=O)c4ccc(OCCN5CCOCC5)cc4)c3)cc21 + CC1(C)CCC(c2ccc(Cl)cc2)=C(CN2CCN(c3ccc(C(=O)NS(=O)(=O)c4ccc(N[C@H](CCN5CCOCC5)CSc5ccccc5)c(S(=O)(=O)C(F)(F)F)c4)cc3)CC2)C1 [Navitoclax] (partner 0.5 µM)
Outline: as §1

[3] = compound: N=C1NC(=O)/C(=C/c2ccc(O)cc2)S1 [Mirin] + COc1cc2c(Oc3ccc(NC(=O)C4(C(=O)Nc5ccc(F)cc5)CC4)cc3F)ccnc2cc1OCCCN1CCOCC1 [Foretinib] (partner 0.25 µM)
Outline: as §1

[4] = compound: N=C1NC(=O)/C(=C/c2ccc(O)cc2)S1 [Mirin] + Cc1nc(NC(=O)N2CCC[C@H]2C(N)=O)sc1-c1ccnc(C(C)(C)C(F)(F)F)c1 [Alpelisib] (partner 2 µM)
Outline: as §1

Cell Line | relative viability ([1]; first compound 0.04 µM) | relative viability ([1]; first compound 0.1265 µM) | relative viability ([1]; first compound 0.4 µM) | relative viability ([1]; first compound 1.265 µM) | relative viability ([1]; first compound 4 µM) | relative viability ([2]; first compound 0.04 µM) | relative viability ([2]; first compound 0.1265 µM) | relative viability ([2]; first compound 0.4 µM) | relative viability ([2]; first compound 1.265 µM) | relative viability ([2]; first compound 4 µM) | relative viability ([3]; first compound 0.25 µM) | relative viability ([3]; first compound 0.7906 µM) | relative viability ([3]; first compound 2.5 µM) | relative viability ([3]; first compound 7.906 µM) | relative viability ([3]; first compound 25 µM) | relative viability ([4]; first compound 0.25 µM) | relative viability ([4]; first compound 0.7906 µM) | relative viability ([4]; first compound 2.5 µM) | relative viability ([4]; first compound 7.906 µM) | relative viability ([4]; first compound 25 µM)
RERF-LC-KJ | 0.814 | 0.827 | 0.849 | 0.84 | 0.772 | 0.867 | 0.828 | 0.946 | 0.603 | 0.481 | 0.974 | 0.915 | 0.932 | 0.892 | 0.901 | 0.822 | 0.898 | 0.956 | 0.916 | 0.75
CAL-12T | 0.744 | 0.771 | 0.731 | 0.754 | 0.901 | 1.83 | 1.46 | 1.61 | 1.35 | 0.955 | 1.16 |  | 1.12 | 1.04 | 1.31 | 1 | 1.36 | 1.15 | 1.23 | 1.34
COR-L 105 | 0.953 | 0.925 | 0.873 | 0.839 | 0.977 | 0.618 | 0.762 | 0.522 | 0.262 | 0.355 | 1.06 | 0.865 | 1.25 | 1.17 | 0.781 | 0.914 | 1.26 | 1.13 | 0.925 | 1.04
NCI-H2405 | 0.958 | 1.01 | 0.833 |  | 1.02 | 1.16 | 0.361 | 0.367 | 0.183 | 0.144 | 1.04 | 1.04 | 1.01 | 1.03 | 1.07 | 0.762 | 0.774 | 0.781 | 0.727 | 0.622
NCI-H2228 | 0.343 | 0.629 | 0.814 | 0.576 | 0.689 | 0.759 | 0.841 | 1.07 | 0.927 | 0.833 | 0.689 | 0.883 | 0.974 | 1.1 | 0.752 | 0.711 | 0.906 | 0.681 | 1.05 | 0.636
PC-14 | 0.918 | 0.896 | 0.965 | 0.931 | 0.982 | 1.1 | 1.01 | 0.924 | 0.934 | 0.748 | 0.968 | 0.833 | 1.09 | 0.929 | 1.02 | 0.83 | 0.915 | 1.01 | 0.95 | 1.05
NCI-H2087 | 1.08 | 1.01 | 1.08 | 0.795 | 0.754 |  | 0.789 | 0.962 | 0.785 | 0.598 | 1.24 | 1.28 | 1 | 0.943 | 1.08 | 1.07 | 1.06 | 1.13 | 1.24 | 1.08
A549 | 0.596 | 0.549 | 0.629 | 0.28 | 0.615 | 1.37 | 1.08 | 0.828 | 0.0937 | 0.0515 | 0.89 | 1.02 | 0.902 | 0.956 | 1.04 | 0.635 | 0.719 | 0.58 | 0.58 | 0.733
NCI-H2342 |  |  |  |  |  |  |  |  |  |  | 1.14 | 1.11 | 1.15 | 1.03 | 0.861 |  |  |  |  | 
NCI-H1623 |  |  |  |  |  |  |  |  |  |  | 0.787 | 0.708 | 0.865 | 0.716 | 0.625 |  |  |  |  | 
